Assay results from US8680100B2, “Sulfonylhydrazide compounds for treating proliferative disorders” (Synta Pharmaceuticals Corp., priority 2008, dated 2014).

Tested on: HSP70
Assay: Hsp70 Activity Essay (HSP70 ELISA on lysates of MDA435 cells)
Assay type: cell-based
Settings: concentration that increases HSP70 to 50% of maximum increase by N′1,N′3-dimethyl-N′1,N′3-di(phenylcarbonothioyl)malonohydrazide
Method: Each well was plated with MDA435 cells using DMEM 10% FBS Phenol-red free medium 2.5 k/well and incubated in a 37° C./5% CO2 incubator for a minimum of 6 hours to obtain good cell adherence.
Dilutions of each test compound were prepared in DMSO and DMEM 10% FBS Phenol-red free medium. The final concentration in each well was 1250 nM, 125 nM, 12.5 nM or 1.25 nM of test compound and 0.25% DMSO. 0.25% DMSO was used as a negative control. Lysis buffer (any lysis buffer suitable for use in the Assay Designs kit, e.g., such as that described in the kit instructions) was then added (amount used is one quarter of the volume already present in each plate) and the mixtures were then shaken for 10 minutes.
150 μL of “Can Get Signal” Immunoreaction Enhancer Solution (Solution 1 for primary antibody, TOYOBO, Catalogue No. NKB-101) were added to each of a series of ELISA plates. The ELISA plates were obtained from the HSP70 ELISA Kit (catalogue number EKS-700B) purchased from Assay Designs (Ann Arbor, Mich.). After the cells were lysed, 50 μL of lysate were taken from each well and added to an ELISA plate, resulting in a 4 fold dilution of the lysate (50 μL of lysate and 150 μL of Can Get Signal solution). The plates were covered with adhesive tape and incubated overnight at 4° C.;
In the morning, the liquid was aspirated from all wells and 400 μL of Washing Buffer made from 20× concentrate provided in the ELISA Kit and distilled water were added and then removed by aspiration. The addition of Washing Buffer and aspiration was repeated four times. After the fourth wash, the plate were inverted to a paper towel and carefully patted dry. 100 μL of HSP70 antibody provided in ELISA Kit were added to each well. Each well was covered with adhesive tape and incubated for one hour at room temperature. Washing Buffer was then added followed by removal with aspiration. The addition of Washing Buffer and aspiration was repeated four times, after which the plates were inverted and patted dry. 100 μL of HSP70 conjugate (provided in the ELISA Kit) were added to the wells. Each well was then covered with adhesive tape and incubated for one hour at room temperature. Washing Buffer was then added followed by removal with aspiration. The addition of Washing Buffer and aspiration was repeated four times, after which the plates were inverted and patted dry.
100 μL of the TMB Substrate (obtained from the ELISA Kit) were added to the wells (color development was visible in 1 minute). The wells were incubated until saturated color development (usually 5-15 minutes). Stop Solution 2 (provided in the ELISA Kit) was added in the same order TMB Substrate was added. The OD450 was then obtained using a plate reader. The EC50 for the compounds was calculated using N′^1,N′^3-dimethyl-N′^1,N′^3-di(phenylcarbonothioyl)malonohydrazide on the same plate as a control (concentration that increases HSP70 to 50% of maximum increase by N′^1,N′^3-dimethyl-N′^1,N′^3-di(phenylcarbonothioyl)malonohydrazide). The EC50 for each of the compounds tested is shown in example 1.

Row | Compound | EC50 [nM]
1 | CN(NC(=O)CS(=O)(=O)NN(C)C(=S)c1ccsc1)C(=S)c1ccccc1 [Compound 57, N′-methyl-2-(2-methyl-2-(phenylcarbonothioyl)hydrazinyl)-2-oxo-N′-(thiophene-3-carbonothioyl)ethanesulfono-hydrazide] | 77
2 | CN(NC(=O)CS(=O)(=O)NN(C)C(=S)c1ccccc1)C(=S)c1ccsc1 [Compound 58, N′-methyl-2-(2-methyl-2-(thiophene-3-carbonothioyl)hydrazinyl)-2-oxo-N′-(phenylcarbonothioyl)ethane-sulfonohydrazide] | 77
3 | CN(NC(=O)CS(=O)(=O)NN(C)C(=S)c1csc2ccccc12)C(=S)c1ccccc1 [Compound 59] | 129
4 | CN(NS(=O)(=O)CC(=O)NN1CCCCC1=S)C(=S)c1ccccc1 [Compound 66, 2-(2-methyl-2-(phenylcarbonothioyl)hydrazinyl-sulfonyl)-N′-(2-thioxopiperidin-1-yl)acetamide] | 48
5 | CCN(CC)C(=S)N(C)NS(=O)(=O)CC(=O)NN(C)C(=S)c1ccccc1 [Compound 68, N,N-diethyl-1-methyl-2-(2-(2-methyl-2-(phenylcarbonothioyl)hydrazinyl)-2-oxoethylsulfonyl)hydrazine-carbothioamide] | 63
6 | CCN(CC)C(=S)N(C)NC(=O)CS(=O)(=O)NN(C)C(=S)c1ccccc1 [Compound 69, N,N′-diethyl-1-methyl-2-(2-(2-methyl-2-(phenylcarbonothioyl)hydrazinyl-sulfonyl)acetyl)hydrazine-carbothioamide] | 85
7 | CCN(CC)C(=S)N(C)NS(=O)(=O)CC(=O)NN(C)C(=S)c1cnccn1 [Compound 70, N,N′-diethyl-1-methyl-2-(2-(2-methyl-2-(pyrazine-2-carbonothioyl)hydrazinyl)-2-oxoethylsulfonyl)hydrazine-carbothioamide] | 127
8 | CN(NC(=O)CS(=O)(=O)NN(C)C(=S)C1CC1)C(=S)c1cnco1 [Compound 74, N′-(cyclopropanecarbonothioyl)-N′-methyl-2-(2-methyl-2-(oxazole-5-carbonothioyl)hydrazinyl)-2-oxoethanesulfonohydrazide] | 301
9 | CCCCN(NS(=O)(=O)CC(=O)NN(C)C(=S)c1ccccc1)C(=S)c1ccccc1 [Compound 75, N′-butyl-2-(2-methyl-2-(phenylcarbonothioyl)hydrazinyl)-2-oxo-N′-(phenylcarbonothioyl) ethanesulfonohydrazide] | 810
10 | CN(NS(=O)(=O)CC(=O)NN(C)C(=S)C1CC1)C(=S)c1cncs1 [Compound 76, 2-(2-(cyclopropanecarbonothioyl)-2-methylhydrazinyl)-N′-methyl-2-oxo-N′-(thiazole-5-carbonothioyl)-ethanesulfonohydrazide] | 1180
11 | CN(NS(=O)(=O)CC(=O)NN(C)C(=S)C1CC1)C(=S)c1cnco1 [Compound 77, 2-(2-(cyclopropanecarbonothioyl)-2-methylhydrazinyl)-N′-methyl-N′-(oxazole-5-carbonothioyl)-2-oxoethanesulfonohydrazide] | 967
12 | CN(NC(=O)CS(=O)(=O)NN(C)C(=S)c1ccccc1F)C(=S)c1ccccc1 [Compound 80, N′-(2-fluorophenylcarbonothioyl)-N′-methyl-2-(2-methyl-2-(phenylcarbonothioyl)hydrazinyl)-2-oxoethanesulfonohydrazide] | 139
13 | CN(NS(=O)(=O)CC(=O)NN(C)C(=S)c1ccccc1C(F)(F)F)C(=S)c1ccccc1 [Compound 81, N′-methyl-2-(2-methyl-2-(2-(trifluoromethyl)phenylcarbono-thioyl)hydrazinyl)-2-oxo-N′-(phenylcarbonothioyl)ethane-sulfonohydrazide] | 354
14 | CN(NS(=O)(=O)CC(=O)NN(C)C(=S)c1ccccc1F)C(=S)c1ccccc1 [Compound 82, 2-(2-(2-fluorophenylcarbonothioyl)-2-methylhydrazinyl)-N′-methyl-2-oxo-N′-(phenylcarbonothioyl)ethane-sulfonohydrazide] | 173
15 | CN(NC(=O)CS(=O)(=O)NN(C)C(=S)C1CC1)C(=S)c1cccc(C(F)(F)F)n1 [Compound 84, N′-(cyclopropanecarbonothioyl)-N′-methyl-2-(2-methyl-2-(6-(trifluoromethyl)pyridine-2-carbonothioyl)hydrazinyl)-2-oxoethanesulfonohydrazide] | 144
16 | COCC(=S)N(C)NC(=O)CS(=O)(=O)NN(C)C(=S)c1ccccc1 [Compound 85, 2-(2-(2-methoxyethanethioyl)-2-methylhydrazinyl)-N′-methyl-2-oxo-N′-(phenylcarbonothioyl)ethane-sulfonohydrazide] | 60
17 | CC(=S)N(C)NC(=O)CS(=O)(=O)NN(C)C(=S)c1ccccc1 [Compound 86, 2-(2-ethanethioyl-2-methylhydrazinyl)-N′-methyl-2-oxo-N′-(phenylcarbonothioyl)ethane-sulfonohydrazide] | 21
18 | CN(NC(=O)C(=CN)S(=O)(=O)NN(C)C(=S)C1CC1)C(=S)C1CC1 [Compound 87, 1-amino-N′-(cyclopropanecarbonothioyl)-3-(2-(cyclopropanecarbonothioyl)-2-methyl-hydrazinyl)-N′-methyl-3-oxoprop-1-ene-2-sulfonohydrazide] | 111
19 | CN(C)C=C(C(=O)NN(C)C(=S)C1CC1)S(=O)(=O)NN(C)C(=S)C1CC1 [Compound 88, N′-(cyclopropanecarbonothioyl)-3-(2-(cyclopropanecarbonothioyl)-2-methylhydrazinyl)-1-(dimethylamino)-N′-methyl-3-oxoprop-1-ene-2-sulfonohydrazide] | 209
20 | CNC=C(C(=O)NN(C)C(=S)C1CC1)S(=O)(=O)NN(C)C(=S)C1CC1 [Compound 89, N′-(cyclopropanecarbonothioyl)-3-(2-(cyclopropanecarbonothioyl)-2-methylhydrazinyl)-N′-methyl-1-(methylamino)-3-oxoprop-1-ene-2-sulfonohydrazide] | 201
21 | CN(NC(=O)C(=CNC1CC1)S(=O)(=O)NN(C)C(=S)C1CC1)C(=S)C1CC1 [Compound 90, N′-(cyclopropanecarbonothioyl)-3-(2-(cyclopropanecarbonothioyl)-2-methylhydrazinyl)-1-(cyclopropylamino)-N′-methyl-3-oxoprop-1-ene-2-sulfonohydrazide] | 227
22 | CC(C)NC=C(C(=O)NN(C)C(=S)C1CC1)S(=O)(=O)NN(C)C(=S)C1CC1 [Compound 91, N′-(cyclopropanecarbonothioyl)-3-(2-(cyclopropanecarbonothioyl)-2-methylhydrazinyl)-1-(isopropylamino)-N′-methyl-3-oxoprop-1-ene-2-sulfonohydrazide] | 229
